Reference: patent publication US11135326B2, “Storage-stable aqueous solutions of chlorine dioxide and methods for preparing and using them” (CDG ENVIRONMENTAL, LLC, priority 2005, dated 2021)

Legend:
[1] = cited from earlier work
[2] = Storage stability of aqueous chlorine dioxide solutions, concentration measured by amperometric titration
Text: To determine the impact of various contaminants, the inventors set up a series of experiments to test the effect of the contaminants at various concentrations.
Pure water containing less than 1 ppm solid impurities was used to dissolve the chlorine dioxide gas and form the aqueous chlorine dioxide solutions at a concentration of 3000 ppm+/−5% chlorine dioxide as the initial starting concentration. The data in the figures is reported as % of starting concentration unless otherwise noted.
All data on concentration of aqueous solutions were measured by amperometric titration as described in EPA Standard Methods. Serial dilution was used to adjust to the range of the analytical device.
The accuracy of the analytical technique used is ±3%. Any variation of less than 3% is not considered significant.

In the case of `[O][Cl+][O-]` [chlorine dioxide], the minimum decomposition rate ([1]; pH of 4.85 to 3.90, U.S. 2002/0037248) is given as 0.6 % per hour, the strength lost ([1]; within 24 hours, U.S. Pat. No. 7,229,647) is given as 80-90% and the “loss of concentration (in words)” value ([2]; 1500-6000 ppm of salt, even at room temperature, compared with about 100 ppm or less) is given as “much higher”. The “rate of deterioration (in words)” value ([2]; 3000 ppm, alkali metal salts at 100 ppm, 40° C.) was “deteriorate at a much higher rate”, the “lose % of their concentration” value ([2]; 3000 ppm, less than 10 ppm alkali metal salts, about 100 days, temperatures up to 40° C.) was “less than 10%” and the “shelf life (in words)” value ([2]; FIG. 2, 4500 ppm starting concentration, distilled water, amber glass bottles, 10° C. to about 40° C.) was “commercially acceptable shelf life”. The “retains % of its starting concentration” value ([2]; FIG. 2, pure chlorine dioxide at about 3000 ppmw in pure water, 40° C., more than 90 days) was ≥ 90%, the “stability in PET bottles (in words)” value ([2]; FIG. 4, distilled water, 750 mL biaxially oriented PET bottles, after an initial rapid rate of loss) was “almost as stable as that stored in glass” and the “stability (in words)” value ([2]; FIG. 5, 25° C. and up to 100 ppm NaCl) was “equally stable within the margin of error”. The “rate of deterioration (in words)” value ([2]; FIG. 5, 100 ppm Na+ and 40° C.) was “deteriorated at a markedly higher rate”, the “effect of manganese ions on storage stability (in words)” value ([2]; FIG. 10, 3000 ppm initial, small amounts of manganese ions (e.g., 10 ppm)) was “greatly diminish the storage stability” and the “shelf life of refrigerated solutions” value ([2]; refrigerated, inferred from FIG. 2 data) was “about a year or more”.
